Values after ≈ are worked out from the molar mass of the structure shown. Active and inactive are the calls of the source. No cut-off for these calls is given here.
Assays:
KB = assay: Cytotoxicity against human KB cells; type: functional, cell-based
LoVo = assay: Cytotoxicity against human LoVo cells; type: functional, cell-based

SMILES | Activity (KB) | Activity (LoVo) | IC50 (KB) | IC50 (LoVo)
CC[C@H](C)[C@@H](C(=O)N1CCC[C@H]1c1nccs1)N(C)C(=O)[C@H](CC(C)C)N(C)C(=O)[C@H](Cc1ccc(OC)cc1)N(C)C(=O)/C=C(\C)OC | inactive | inactive |  | 
CC(C)[C@@H]1NC(=O)CNC(=O)[C@@H]2CSC(=N2)[C@H](C(C)(C)O)OC(=O)C(C)(C)[C@H](CCCC(C)(Cl)Cl)OC(=O)c2csc1n2 [LYNGBYABELLIN B] |  |  | 0.1 µg/mL (≈ 0.147 µM) | 0.83 µg/mL (≈ 1.22 µM)

From ChEMBL document CHEMBL1155611, “Isolation and structure of the cytotoxin lyngbyabellin B and absolute configuration of lyngbyapeptin A from the marine cyanobacterium Lyngbya majuscula” (J Nat Prod, 2000)
